Measurements reported in PMC7217186 (The Febs Journal, 2019).

Molecular target: T1, TKS (tetraketide synthase) (Cannabis sativa, UniProt B1Q2B6)
T1 construct: gene OLS; codon-optimised gene in pETM11, N-terminal TEV-cleavable His6 tag, cut from wild type after purification; E. coli BL21(DE3); dimer (two dimers in asymmetric unit); Cys157 oxidised to sulfinic acid in crystal
Experiment: LC-MS of products (olivetol, PDAL, HTAL)
Assay type: biochemical
Details: 10 μM hexanoyl-CoA, 30 μM malonyl-CoA, 10 μM enzyme, 25 mM Tris pH 8, 150 mM NaCl, 5% glycerol, 25 °C, overnight

T1 sequence (B1Q2B6 2-385): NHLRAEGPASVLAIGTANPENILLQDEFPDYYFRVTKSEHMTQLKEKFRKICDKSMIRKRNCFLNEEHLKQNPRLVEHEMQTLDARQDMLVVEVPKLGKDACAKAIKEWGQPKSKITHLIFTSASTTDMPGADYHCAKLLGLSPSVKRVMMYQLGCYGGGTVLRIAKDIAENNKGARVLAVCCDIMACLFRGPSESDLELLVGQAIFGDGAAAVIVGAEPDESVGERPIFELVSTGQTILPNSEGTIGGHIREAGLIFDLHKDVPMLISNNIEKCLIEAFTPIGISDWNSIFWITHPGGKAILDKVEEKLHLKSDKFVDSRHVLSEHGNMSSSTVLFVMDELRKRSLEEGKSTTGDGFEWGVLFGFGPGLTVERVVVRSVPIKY

## CCCCCC(=O)SCCNC(=O)CCNC(=O)[C@H](O)C(C)(C)COP(=O)(O)OP(=O)(O)OC[C@H]1O[C@@H](n2cnc3c(N)ncnc32)[C@H](O)[C@@H]1OP(=O)(O)O [hexanoyl-CoA]
  LC-MS of products (olivetol, PDAL, HTAL): A major product generated by TKS with malonyl‐CoA and hexanoyl‐CoA was identified as olivetol

## CC(C)(COP(=O)(O)OP(=O)(O)OC[C@H]1O[C@@H](n2cnc3c(N)ncnc32)[C@H](O)[C@@H]1OP(=O)(O)O)[C@@H](O)C(=O)NCCC(=O)NCCSC(=O)CC(=O)O [malonyl-CoA]
  LC-MS of products (olivetol, PDAL, HTAL): A major product generated by TKS with malonyl‐CoA and hexanoyl‐CoA was identified as olivetol
